Laboratory results as given in US8962322B2, “Enhancers of induced pluripotent stem cell reprogramming” (City of Hope, priority 2012, dated 2015).

How the values were obtained:
OG2 MEFs = assay: iPSC derivation from 4F (OSKM)-transduced OG2 MEFs in iSF1 media (Oct4-GFP colonies); assay type: cell-based, mouse
Procedure: Recently, a serum-free media (iSF1) was developed to facilitate the generation of mouse iPSCs (39). The effect of compound OAC1 in the 4F-induced reprogramming was tested in iSF1 media. OG2 MEFs, derived from transgenic mice expressing the Oct4 promoter-driven GFP reporter (Oct4-GFP) (40), were transduced with retroviruses expressing the 4F reprogramming factors, Oct4, Sox2, Klf4, and c-Myc. The 4F-transduced cells were transferred to iSF1 media two days after viral transduction and this day was designated as day 0 (FIG. 3A). Treatment of compound OAC1 started on day 1 and lasted for 7 days. […] At day 5, a more than 3-fold increase in the number of GFP-positive colonies was detected in OAC1-treated, 4F-transduced cells (4F+OAC1), compared to vehicle-treated, 4F-transduced cells (FIG. 3B, C). […] The number of GFP-positive colonies in 4F-treated cells at day 8 (average of 200) was less than the number of GFP-positive colonies in 4F+OAC1-treated cells at day 5 (average of 350) (FIG. 3B, C).
iPSC Derivation in iSF1 Media: OG2 MEFs were seeded onto 6-well plates at the density of 3×10^4 cells per well in DMEM medium with 10% FBS, 0.1 mM NEAA, and 0.1 mM L-glutamine, 24 hr before transduction. Freshly prepared viruses of the 4F, Oct4, Sox2, c-Myc, and Klf4, were added to the cells. Two days after viral infection, the transduced OG2 MEFs were split into new 6-well plates with irradiated MEF feeders and cultured in iSF1 reprogramming media containing high glucose DMEM, 10% knockout serum, 0.5% N2, 5 ng/ml b-FGF, 2 mM L-glutamine, 0.1 mM 2-mercaptoethanol, 0.1 mM NEAA and 1000 U/ml of LIF. This day was defined as day 0. On day 1, 1 μM of each compound (OAC1, OAC2, and OAC3) was added to the 4F-transduced OG2 MEFs. Treatment was continued for 1 week. When iPSC colonies emerged, these colonies were picked for expansion on the irradiated MEF feeders in mouse ESC medium.

[1] = tested on: human fibroblast cells (IMR90); assay: human iPSC derivation from 4F (OSKM)-transduced IMR90 fibroblasts; assay type: cell-based
Procedure: It has been shown that compound OAC1 (Oct4-activating compound I) and two of its structural analogs OAC2 and OAC3 can enhance reprogramming efficiency, when added to the reprogramming mixture along with the four transcription factors, Oct4, Sox2, Klf4, and c-Myc (OSKM), in mouse system. The OAC compounds were tested to determine if they can enhance reprogramming efficiency in human system. The reprogramming process was performed as described in the diagram (FIG. 14a). Briefly, human fibroblast cells (IMR90) were induced to reprogram into induced pluripotent stem cells (iPSCs) using the four reprogramming factors (4F), OSKM. The day when the cells were transduced with the four reprogramming factors was referred to as day 0. Cells were cultured in IMR90 media for six days. On day 6, the transduced cells were split and seeded onto feeders. On day 7, IMR90 culture media was changed to hESC culture media and started compound treatment. Compound treatment was lasted for one week. Cells were monitored for the appearance of human embryonic stem cell (ESC)-like colonies. On day 9, several small human ESC-like colonies appeared in both 4F+OAC1 and 4F+OAC2-treated cells, however, human ESC-like colonies were not observed in 4F+vehicle (4F)-treated cells until day 11. To determine the effect of OAC on the efficiency of human iPSC derivation, the number of human ESC-like colonies were counted under all three conditions at day 18. Both OAC 1 and its structural analog OAC2 increased the number of human ESC-like colonies more than two-fold (FIG. 14b, c). The human ESC-like colonies were picked from either 4F or 4F+OAC-treated cells and expanded under human ESC culture conditions. These cells were able to expand and stably produce human iPSC clones with characteristic human ESC-like morphology (FIG. 14d).

For O=C(Nc1cc2cc[nH]c2cn1)c1ccccc1 [OAC1, N-(1H-6-azaindol-5-yl)benzamide], the Colony numbers (OG2 MEFs; MEFs in iSF1 media, OSKM, seeding 3 × 10^4, day 8, 1 μM compound) was 800, the Reprogramming efficiency (OG2 MEFs; MEFs in iSF1 media, OSKM, seeding 3 × 10^4, day 8, colony numbers divided by seeding cell numbers) was 2.75% and the “day at which GFP+ colonies started to appear” value (OG2 MEFs; iSF1 media, 4F+compound, days after transfer to iSF1 media) was 3 days. For the same compound, the “increase in the number of GFP-positive colonies compared to vehicle-treated 4F-transduced cells” value (OG2 MEFs; iSF1 media, day 5) was “more than 3 fold”, the “number of GFP-positive colonies (average)” value (OG2 MEFs; iSF1 media, day 5) was 350 and the “reprogramming efficiency of 4F+compound relative to 4F alone in the initial Yamanaka study” value (OG2 MEFs; not a direct comparison) was “more than 20 fold”. The “day at which human ESC-like colonies appeared” value ([1]; IMR90, 4F+compound, day 0 = transduction, 4F+vehicle day 11) was 9 days and the “increase in the number of human ESC-like colonies” value ([1]; IMR90, day 18, versus 4F) was “more than two”.
